Entries after “also recorded” stand apart in the source; their conditions may differ. Like-named read-outs stand apart in the source and are kept apart here.
Columns and labels:
[1] = in human; parent drug versus its prodrug LY2140023; cited from earlier work
[2] = background value, no reference given; cited from earlier work
hPEPT1 = target: T1, hPEPT1 (Homo sapiens, UniProt P46059); test: Uptake by MDCK-hPEPT1 cells versus MDCK mock cells; format: cell-based; details: Fig. 6A
T1 sequence (P46059 1-708): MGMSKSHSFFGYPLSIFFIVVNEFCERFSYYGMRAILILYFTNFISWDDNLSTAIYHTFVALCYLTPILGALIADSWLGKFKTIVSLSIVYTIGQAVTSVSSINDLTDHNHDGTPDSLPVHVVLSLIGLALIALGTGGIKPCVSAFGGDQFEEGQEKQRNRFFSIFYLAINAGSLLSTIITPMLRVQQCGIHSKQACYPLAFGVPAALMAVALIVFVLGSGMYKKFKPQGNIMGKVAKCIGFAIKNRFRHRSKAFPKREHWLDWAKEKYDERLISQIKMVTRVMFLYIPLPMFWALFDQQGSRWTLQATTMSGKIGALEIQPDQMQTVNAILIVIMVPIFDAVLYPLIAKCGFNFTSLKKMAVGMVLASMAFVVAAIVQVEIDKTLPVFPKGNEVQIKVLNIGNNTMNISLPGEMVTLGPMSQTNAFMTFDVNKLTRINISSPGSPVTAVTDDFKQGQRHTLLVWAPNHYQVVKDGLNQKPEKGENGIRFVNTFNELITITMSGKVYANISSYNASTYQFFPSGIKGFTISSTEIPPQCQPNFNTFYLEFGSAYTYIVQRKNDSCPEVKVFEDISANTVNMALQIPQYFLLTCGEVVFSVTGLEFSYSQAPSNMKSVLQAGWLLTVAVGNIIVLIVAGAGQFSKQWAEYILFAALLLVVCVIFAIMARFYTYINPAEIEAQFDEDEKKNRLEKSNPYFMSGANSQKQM

[3] = cited from earlier work; for oral bioavailability of cytarabine: cytarabine versus its L-valyl prodrug valcytarabine
[4] = rat plasma, intravenous injection 8 mg/kg
[5] = rat plasma, oral administration, 160 mg/kg calculated as peramivir

N[C@@]1(C(=O)O)CS(=O)(=O)[C@H]2[C@H](C(=O)O)[C@H]21 [LY404039]
oral bioavailability of the parent drug LY404039 [1]: 6.0%

CCC(CC)[C@H](NC(C)=O)[C@@H]1[C@H](O)[C@@H](C(=O)O)C[C@H]1N=C(N)N [Peramivir]
log P [2]: −1.4
PEPT1-mediated transport (uptake in MDCK-hPEPT1 versus mock cells) (hPEPT1): no PEPT1-mediated transport; also recorded: not (statistically) significant different between MDCK-hPEPT1 and MDCK mock cells
oral bioavailability ([3]; peramivir given orally, background value, reference not given): 3%
AUC0-∞ of peramivir [4]: 3604.8 ng·h/mL
t1/2 of peramivir [4]: 3.9 h
AUC0-∞ of peramivir [5]: 2955.9 ng·h/mL
Cmax of peramivir [5]: 771.6 ± 278.3 ng/mL
Tmax of peramivir [5]: 1.0 h
t1/2 of peramivir [5]: 3.2 h
F, absolute oral bioavailability of peramivir (rat, oral 160 mg/kg calculated as peramivir versus i.v. peramivir 8 mg/kg): 4.1%

Nc1ccn([C@@H]2O[C@H](CO)[C@@H](O)[C@@H]2O)c(=O)n1 [cytarabine]
oral bioavailability of cytarabine [3]: 21.8%

CC(C)C(N)C(=O)OCC1OC(n2ccc(N)nc2=O)C(O)C1O (centres unmarked) [valcytarabine]
oral bioavailability of cytarabine [3]: 60.0%

CSCC[C@H](N)C(=O)N[C@@]1(C(=O)O)CS(=O)(=O)[C@H]2[C@H](C(=O)O)[C@H]21 [LY2140023]
oral bioavailability of the parent drug LY404039 [1]: 68.0%
